Target: Concanavalin A (Con A) (Canavalia ensiformis, UniProt P02866)
Format: biochemical, jack bean (Canavalia ensiformis)
Settings: 1000 equiv. added after 180 min

**Q.** `COC1OC(CO)C(O)C(O)C1O` [methyl-α-D-mannose] was tested. Which “effect of competitive inhibitor on Con A-complex aggregates” value did it give?
**A.** immediate deaggregation

From publication PMC9890585 (Chemical Science, 2022)
